Experiments:
Experiment in all cases: relative viability (nuclei count vs DMSO), 5 days (fraction); higher = more cells survive
NCI-H460 = test system: NCI-H460
In short: (§1)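 Cells from lung cancer lines were seeded into 1536-well plates and, one day later, dosed by pin tool. Treatments were either a single drug or a fixed dose of an anchor drug with five library-drug doses (not always all listed) in √10 steps. After 5 days, nuclei were stained in a one-step fixation (final 0.05% Triton X-100, 1% formaldehyde, 1 ug/ml Hoechst) and counted on 4× images, and relative viability is the treated-to-vehicle nuclei ratio, as the median of duplicate plates.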

LC-2-ad = test system: LC-2-ad
In short: as §1

HCC-15 = test system: HCC-15
In short: as §1

NCI-H650 = test system: NCI-H650
In short: as §1

NCI-H661 = test system: NCI-H661
In short: as §1

NCI-H1651 = test system: NCI-H1651
In short: as §1

NCI-H1792 = test system: NCI-H1792
In short: as §1

A-427 = test system: A-427
In short: as §1

PC-3 [JPC-3] = test system: PC-3 [JPC-3]
In short: as §1

NCI-H596 = test system: NCI-H596
In short: as §1

201T = test system: 201T
In short: as §1

NCI-H441 = test system: NCI-H441
In short: as §1

NCI-H2023 = test system: NCI-H2023
In short: as §1

NCI-H520 = test system: NCI-H520
In short: as §1

NCI-H2087 = test system: NCI-H2087
In short: as §1

BEN = test system: BEN
In short: as §1

NCI-H1915 = test system: NCI-H1915
In short: as §1

NCI-H1944 = test system: NCI-H1944
In short: as §1

LCLC-97TM1 = test system: LCLC-97TM1
In short: as §1

H3255 = test system: H3255
In short: as §1

CAL-12T = test system: CAL-12T
In short: as §1

NCI-H727 = test system: NCI-H727
In short: as §1

NCI-H1650 = test system: NCI-H1650
In short: as §1

Clc1ccc(Nc2nnc(Cc3ccncc3)c3ccccc23)cc1 [Vatalanib] + CC(=O)Nc1cccc(-n2c(=O)n(C3CC3)c(=O)c3c(Nc4ccc(I)cc4F)n(C)c(=O)c(C)c32)c1 [Trametinib] (partner 0.02 µM)
relative viability (NCI-H460; first compound 0.04 µM): 0.178
relative viability (NCI-H460; first compound 0.1265 µM): 0.11
relative viability (NCI-H460; first compound 0.4 µM): 0.201
relative viability (NCI-H460; first compound 1.265 µM): 0.135
relative viability (NCI-H460; first compound 4 µM): 0.0924
relative viability (LC-2-ad; first compound 0.04 µM): 0.97
relative viability (LC-2-ad; first compound 0.1265 µM): 0.77
relative viability (LC-2-ad; first compound 0.4 µM): 0.965
relative viability (LC-2-ad; first compound 1.265 µM): 0.919
relative viability (LC-2-ad; first compound 4 µM): 0.892
relative viability (HCC-15; first compound 0.04 µM): 0.392
relative viability (HCC-15; first compound 0.1265 µM): 0.412
relative viability (HCC-15; first compound 0.4 µM): 0.404
relative viability (HCC-15; first compound 1.265 µM): 0.365
relative viability (HCC-15; first compound 4 µM): 0.365
relative viability (NCI-H650; first compound 0.04 µM): 0.941
relative viability (NCI-H650; first compound 0.1265 µM): 0.796
relative viability (NCI-H650; first compound 0.4 µM): 0.997
relative viability (NCI-H650; first compound 1.265 µM): 0.924
relative viability (NCI-H650; first compound 4 µM): 0.904
relative viability (NCI-H661; first compound 0.04 µM): 0.636
relative viability (NCI-H661; first compound 0.1265 µM): 0.533
relative viability (NCI-H661; first compound 0.4 µM): 0.689
relative viability (NCI-H661; first compound 1.265 µM): 0.59
relative viability (NCI-H661; first compound 4 µM): 0.574
relative viability (NCI-H1651; first compound 0.04 µM): 0.802
relative viability (NCI-H1651; first compound 0.1265 µM): 0.778
relative viability (NCI-H1651; first compound 0.4 µM): 0.779
relative viability (NCI-H1651; first compound 1.265 µM): 0.742
relative viability (NCI-H1651; first compound 4 µM): 0.809
relative viability (NCI-H1792; first compound 0.04 µM): 0.528
relative viability (NCI-H1792; first compound 0.1265 µM): 0.395
relative viability (NCI-H1792; first compound 0.4 µM): 0.394
relative viability (NCI-H1792; first compound 1.265 µM): 0.399
relative viability (NCI-H1792; first compound 4 µM): 0.456
relative viability (A-427; first compound 0.04 µM): 0.741
relative viability (A-427; first compound 0.1265 µM): 0.743
relative viability (A-427; first compound 0.4 µM): 0.867
relative viability (A-427; first compound 4 µM): 0.73
relative viability (PC-3 [JPC-3]; first compound 0.04 µM): 0.78
relative viability (PC-3 [JPC-3]; first compound 0.1265 µM): 0.675
relative viability (PC-3 [JPC-3]; first compound 0.4 µM): 0.547
relative viability (PC-3 [JPC-3]; first compound 1.265 µM): 0.619
relative viability (PC-3 [JPC-3]; first compound 4 µM): 0.646
relative viability (NCI-H596; first compound 0.04 µM): 0.782
relative viability (NCI-H596; first compound 0.1265 µM): 0.88
relative viability (NCI-H596; first compound 0.4 µM): 0.76
relative viability (NCI-H596; first compound 1.265 µM): 0.751
relative viability (NCI-H596; first compound 4 µM): 0.75
relative viability (201T; first compound 0.04 µM): 0.718
relative viability (201T; first compound 0.1265 µM): 0.743
relative viability (201T; first compound 0.4 µM): 0.75
relative viability (201T; first compound 1.265 µM): 0.731
relative viability (201T; first compound 4 µM): 0.735
relative viability (NCI-H441; first compound 0.04 µM): 0.435
relative viability (NCI-H441; first compound 0.1265 µM): 0.366
relative viability (NCI-H441; first compound 0.4 µM): 0.476
relative viability (NCI-H441; first compound 1.265 µM): 0.411
relative viability (NCI-H441; first compound 4 µM): 0.421
relative viability (NCI-H2023; first compound 0.04 µM): 0.5
relative viability (NCI-H2023; first compound 0.1265 µM): 0.529
relative viability (NCI-H2023; first compound 0.4 µM): 0.477
relative viability (NCI-H2023; first compound 1.265 µM): 0.503
relative viability (NCI-H2023; first compound 4 µM): 0.517
relative viability (NCI-H520; first compound 0.04 µM): 0.794
relative viability (NCI-H520; first compound 0.1265 µM): 0.654
relative viability (NCI-H520; first compound 0.4 µM): 0.766
relative viability (NCI-H520; first compound 1.265 µM): 0.615
relative viability (NCI-H520; first compound 4 µM): 0.602
relative viability (NCI-H2087; first compound 0.04 µM): 0.245
relative viability (NCI-H2087; first compound 0.1265 µM): 0.197
relative viability (NCI-H2087; first compound 0.4 µM): 0.249
relative viability (NCI-H2087; first compound 1.265 µM): 0.194
relative viability (NCI-H2087; first compound 4 µM): 0.179
relative viability (BEN; first compound 0.04 µM): 1.12
relative viability (BEN; first compound 0.1265 µM): 1.04
relative viability (BEN; first compound 0.4 µM): 0.976
relative viability (BEN; first compound 1.265 µM): 1.12
relative viability (BEN; first compound 4 µM): 0.977
relative viability (NCI-H1915; first compound 0.04 µM): 0.32
relative viability (NCI-H1915; first compound 0.1265 µM): 0.34
relative viability (NCI-H1915; first compound 0.4 µM): 0.323
relative viability (NCI-H1915; first compound 1.265 µM): 0.298
relative viability (NCI-H1915; first compound 4 µM): 0.295
relative viability (NCI-H1944; first compound 0.04 µM): 0.42
relative viability (NCI-H1944; first compound 0.1265 µM): 0.373
relative viability (NCI-H1944; first compound 0.4 µM): 0.438
relative viability (NCI-H1944; first compound 1.265 µM): 0.425
relative viability (NCI-H1944; first compound 4 µM): 0.386
relative viability (LCLC-97TM1; first compound 0.04 µM): 0.18
relative viability (LCLC-97TM1; first compound 0.1265 µM): 0.197
relative viability (LCLC-97TM1; first compound 0.4 µM): 0.198
relative viability (LCLC-97TM1; first compound 1.265 µM): 0.195
relative viability (LCLC-97TM1; first compound 4 µM): 0.184
relative viability (H3255; first compound 0.04 µM): 0.563
relative viability (H3255; first compound 0.1265 µM): 0.606
relative viability (H3255; first compound 0.4 µM): 0.57
relative viability (H3255; first compound 1.265 µM): 0.583
relative viability (H3255; first compound 4 µM): 0.58
relative viability (CAL-12T; first compound 0.04 µM): 0.366
relative viability (CAL-12T; first compound 0.1265 µM): 0.296
relative viability (CAL-12T; first compound 0.4 µM): 0.368
relative viability (CAL-12T; first compound 1.265 µM): 0.366
relative viability (CAL-12T; first compound 4 µM): 0.298
relative viability (NCI-H727; first compound 0.1265 µM): 0.413
relative viability (NCI-H727; first compound 0.4 µM): 0.377
relative viability (NCI-H727; first compound 1.265 µM): 0.37
relative viability (NCI-H727; first compound 4 µM): 0.394
relative viability (NCI-H1650; first compound 0.04 µM): 0.598
relative viability (NCI-H1650; first compound 0.1265 µM): 0.532
relative viability (NCI-H1650; first compound 0.4 µM): 0.306
relative viability (NCI-H1650; first compound 1.265 µM): 0.656
relative viability (NCI-H1650; first compound 4 µM): 0.508
